Paper PMC10141580, “Cyclic Dichalcogenides Extend the Reach of Bioreductive Prodrugs to Harness Thiol/Disulfide Oxidoreductases: Applications to seco-Duocarmycins Targeting the Thioredoxin System” (ACS Central Science, 2023)
“And” between values parts separate entries of the source, which are not always exact repeats. Identical values can stand only once. Like-named read-outs stand apart in the source and are kept apart here.

Tested on: panel of 140 standard cancer cell lines
Test: ProliFiler-140 cancer cell line screen (CellTiterGlo, 72 h)
Type: cell-based
Description: Incubations were performed for 72 h before automated viability readout with CellTiterGlo (Figure 8).
End of Figure S11 (part 5 of 5): ProliFiler-140 cancer cell line screening for cytotoxicity of the prodrugs.
8-data-point dose response curves from CellTiter-Glo® viability readout.
ProliFiler-140 cell line panel part V

For COc1cc2cc(C(=O)N3C[C@@H](CCl)c4c3cc(OC(=O)N(CCC(=O)N3CCN(C)CC3)[C@H]3CCSSC3)c3ccccc43)[nH]c2c(OC)c1OC [P-SS60-CBI-TMI], the “Reductive Activation Index” value (786-O (Kidney)) was 5.22, the IC50 (786-O (Kidney), read-out: IC50 [M] (ProliFiler-140)) was 2.26e-08 M and 2.3e-08 M and the “Reductive Activation Index” value (A172 (Brain)) was 4.87. The IC50 (A172 (Brain), read-out: IC50 [M] (ProliFiler-140)) was 1.18e-07 M and 1.2e-07 M, the “Reductive Activation Index” value (A375 (Skin)) was 5.08 and the IC50 (A375 (Skin), read-out: IC50 [M] (ProliFiler-140)) was 3.23e-08 M and 3.2e-08 M. For the same molecule, the “Reductive Activation Index” value (A427 (Lung)) was 5.0 and 5.03, the IC50 (A427 (Lung), read-out: IC50 [M] (ProliFiler-140)) was 1.6e-07 M and 1.64e-07 M and the IC50 (A431 (Skin), read-out: IC50 [M] (ProliFiler-140)) was 4.05e-08 M and 4e-08 M. For the same molecule, the “Reductive Activation Index” value (A498 (Kidney)) was 5.96, the IC50 (A498 (Kidney), read-out: IC50 [M] (ProliFiler-140)) was 5.04e-08 M and 5e-08 M and the IC50 (A498, read-out: IC50) was 5e-08 M. The “Reductive Activation Index” value (A549 (Lung)) was 6.4, the IC50 (A549 (Lung), read-out: IC50 [M] (ProliFiler-140)) was 1.2e-07 M and the IC50 (A549, read-out: IC50) was 1.2e-07 M. For the same molecule, the IC50 (A2058 (Skin), read-out: IC50 [M] (ProliFiler-140)) was 1.5e-08 M, the IC50 (A2780 (Ovary), read-out: IC50 [M] (ProliFiler-140)) was 1.2e-08 M and the “Reductive Activation Index” value (AsPC-1 (Pancreas)) was 8.2. The IC50 (AsPC-1 (Pancreas), read-out: IC50 [M] (ProliFiler-140)) was 2.6e-07 M and 2.63e-07 M, the “Reductive Activation Index” value (BEN (Lung)) was 13 and the IC50 (BEN (Lung), read-out: IC50 [M] (ProliFiler-140)) was 1.1e-07 M and 1.12e-07 M. For the same molecule, the “Reductive Activation Index” value (BT-20 (Breast)) was 4.6, the IC50 (BT-20 (Breast), read-out: IC50 [M] (ProliFiler-140)) was 2.4e-07 M and 2.42e-07 M and the “fold-change of IC50 relative to P-CC60” value (BxPC-3) was 6. For the same molecule, the IC50 (BxPC-3 (Pancreas), read-out: IC50 [M] (ProliFiler-140)) was 1.08e-07 M and 1.1e-07 M, the IC50 (COLO 205, read-out: IC50) was 1.6e-07 M and the IC50 (COR-L279 (Lung), read-out: IC50 [M] (ProliFiler-140)) was 1.4e-08 M and 1.43e-08 M. For the same molecule, the IC50 (COV434 (Ovary), read-out: IC50 [M] (ProliFiler-140)) was 2.2e-08 M and 2.24e-08 M, the “Reductive Activation Index” value (Caki-1 (Kidney)) was 5.23 and the IC50 (Caki-1 (Kidney), read-out: IC50 [M] (ProliFiler-140)) was 6.29e-08 M and 6.3e-08 M. The “Reductive Activation Index” value (Caki-2 (Kidney)) was 7.2, the IC50 (Caki-2 (Kidney), read-out: IC50 [M] (ProliFiler-140)) was 2.1e-07 M and the “Reductive Activation Index” value (Calu-6 (Lung)) was 6.64. The IC50 (Calu-6 (Lung), read-out: IC50 [M] (ProliFiler-140)) was 5.16e-08 M and 5.2e-08 M, the “Reductive Activation Index” value (Colo 205 (Colon)) was 4.9 and the IC50 (Colo 205 (Colon), read-out: IC50 [M] (ProliFiler-140)) was 1.6e-07 M and 1.57e-07 M. The “Reductive Activation Index” value (DLD-1 (Colon)) was 4.69 and 4.7, the IC50 (DLD-1 (Colon), read-out: IC50 [M] (ProliFiler-140)) was 1.69e-07 M and 1.7e-07 M and the IC50 (DU-145 (Prostate), read-out: IC50 [M] (ProliFiler-140)) was 3.6e-08 M and 3.58e-08 M. For the same molecule, the IC50 (DV90 (Lung), read-out: IC50 [M] (ProliFiler-140)) was 1.3e-08 M and 1.32e-08 M, the IC50 (Detroit562 (Head/Neck), read-out: IC50 [M] (ProliFiler-140)) was 4.27e-08 M and 4.3e-08 M and the “Reductive Activation Index” value (EFM-19 (Breast)) was 4.2 and 4.18. For the same molecule, the IC50 (EFM-19 (Breast), read-out: IC50 [M] (ProliFiler-140)) was 2.3e-07 M, the “Reductive Activation Index” value (EFM-192A (Breast)) was 5.9 and the IC50 (EFM-192A (Breast), read-out: IC50 [M] (ProliFiler-140)) was 3e-07 M and 3.01e-07 M. For the same molecule, the “Reductive Activation Index” value (EFO-27 (Ovary)) was 5.7, the IC50 (EFO-27 (Ovary), read-out: IC50 [M] (ProliFiler-140)) was 1.6e-07 M and 1.58e-07 M and the IC50 (EPLC-272H (Lung), read-out: IC50 [M] (ProliFiler-140)) was 7.9e-08 M. For the same molecule, the “Reductive Activation Index” value (H4 (Brain)) was 5.36, the IC50 (H4 (Brain), read-out: IC50 [M] (ProliFiler-140)) was 1.51e-08 M and 1.5e-08 M and the “Reductive Activation Index” value (H460 (Lung)) was 7.2. The IC50 (H460 (Lung), read-out: IC50 [M] (ProliFiler-140)) was 7.1e-09 M and 7.11e-09 M, the IC50 (H1299 (Lung), read-out: IC50 [M] (ProliFiler-140)) was 7.85e-08 M and 7.9e-08 M and the IC50 (H2228 (Lung), read-out: IC50 [M] (ProliFiler-140)) was 5.68e-08 M and 5.7e-08 M. For the same molecule, the IC50 (HCC38 (Breast), read-out: IC50 [M] (ProliFiler-140)) was 1.9e-08 M, the “Reductive Activation Index” value (HCC202 (Breast)) was 7.1 and the IC50 (HCC202 (Breast), read-out: IC50 [M] (ProliFiler-140)) was 1.3e-07 M and 1.26e-07 M. For the same molecule, the “Reductive Activation Index” value (HCC827 (Lung)) was 7.3, the IC50 (HCC827 (Lung), read-out: IC50 [M] (ProliFiler-140)) was 1.9e-07 M and the “Reductive Activation Index” value (HCC 1569 (Breast)) was 8.2. The IC50 (HCC 1569 (Breast), read-out: IC50 [M] (ProliFiler-140)) was 1.2e-07 M and 1.21e-07 M, the IC50 (HCT116 (Colon), read-out: IC50 [M] (ProliFiler-140)) was 6.94e-08 M and 6.9e-08 M and the “Reductive Activation Index” value (HCT-15 (Colon)) was 5.23. For the same molecule, the IC50 (HCT-15 (Colon), read-out: IC50 [M] (ProliFiler-140)) was 1.04e-07 M and 1e-07 M, the IC50 (HCT-15, read-out: IC50) was 1e-07 M and the “Reductive Activation Index” value (HEC-1-A (Endometrium)) was 6.5. The IC50 (HEC-1-A (Endometrium), read-out: IC50 [M] (ProliFiler-140)) was 2.8e-07 M and 2.85e-07 M, the “Reductive Activation Index” value (HEC-1-B (Endometrium)) was 4.0 and the IC50 (HEC-1-B (Endometrium), read-out: IC50 [M] (ProliFiler-140)) was 8.3e-07 M and 8.33e-07 M. The IC50 (HL-60 (Blood), read-out: IC50 [M] (ProliFiler-140)) was 1.8e-08 M and 1.83e-08 M, the “Reductive Activation Index” value (HT-29 (Colon)) was 5.3 and the IC50 (HT-29 (Colon), read-out: IC50 [M] (ProliFiler-140)) was 1.9e-07 M and 1.88e-07 M. For the same molecule, the IC50 (HT-29, read-out: IC50) was 1.9e-07 M, the IC50 (HT-1080 (Fibrosarcoma), read-out: IC50 [M] (ProliFiler-140)) was 5.01e-08 M and 5e-08 M and the “Reductive Activation Index” value (HeLa (Ovary)) was 13.55. For the same molecule, the “Reductive Activation Index” value (Hep3B2.1-7 (Liver)) was 5.6, the IC50 (Hep3B2.1-7 (Liver), read-out: IC50 [M] (ProliFiler-140)) was 2.4e-07 M and 2.37e-07 M and the “Reductive Activation Index” value (Hs 746T (Stomach)) was 7.7. For the same molecule, the IC50 (Hs 746T (Stomach), read-out: IC50 [M] (ProliFiler-140)) was 1.3e-07 M and 1.29e-07 M, the “Reductive Activation Index” value (HuH7 (Liver)) was 5.70 and the IC50 (HuH7 (Liver), read-out: IC50 [M] (ProliFiler-140)) was 1.14e-07 M and 1.1e-07 M. For the same molecule, the “Reductive Activation Index” value (Hutu 80 (Duodenum)) was 5.42 and 5.4, the IC50 (Hutu 80 (Duodenum), read-out: IC50 [M] (ProliFiler-140)) was 9.92e-09 M and 9.9e-09 M and the IC50 (Ishikawa (Endometrium), read-out: IC50 [M] (ProliFiler-140)) was 7.1e-09 M and 7.07e-09 M. The IC50 (J82 (Bladder), read-out: IC50 [M] (ProliFiler-140)) was 9.88e-08 M and 9.9e-08 M, the “Reductive Activation Index” value (JIMT-1 (Breast)) was 8.4 and the IC50 (JIMT-1 (Breast), read-out: IC50 [M] (ProliFiler-140)) was 1.9e-07 M. The IC50 (JVM-3 (Blood), read-out: IC50 [M] (ProliFiler-140)) was 8.72e-09 M and 8.7e-09 M, the IC50 (Jurkat (Blood), read-out: IC50 [M] (ProliFiler-140)) was 1.64e-08 M and 1.6e-08 M and the “Reductive Activation Index” value (K562 (Blood)) was 5.3. For the same molecule, the IC50 (K562 (Blood), read-out: IC50 [M] (ProliFiler-140)) was 2.1e-07 M and 2.07e-07 M, the “Reductive Activation Index” value (KARPAS 299 (Blood)) was 4.42 and the IC50 (KARPAS 299 (Blood), read-out: IC50 [M] (ProliFiler-140)) was 1.6e-07 M. For the same molecule, the “Reductive Activation Index” value (KG-1 (Blood)) was 4.67, the IC50 (KG-1 (Blood), read-out: IC50 [M] (ProliFiler-140)) was 1.33e-07 M and 1.3e-07 M and the “Reductive Activation Index” value (KG-1 a (Blood)) was 5.26. For the same molecule, the IC50 (KG-1 a (Blood), read-out: IC50 [M] (ProliFiler-140)) was 1.05e-07 M and 1e-07 M, the IC50 (KMS-12-BM (Blood), read-out: IC50 [M] (ProliFiler-140)) was 6.64e-08 M and 6.6e-08 M and the “Reductive Activation Index” value (Kato III (Stomach)) was 4.3. The IC50 (Kato III (Stomach), read-out: IC50 [M] (ProliFiler-140)) was 3.7e-07 M and 3.72e-07 M, the “Reductive Activation Index” value (LN229 (Brain)) was 5.21 and the IC50 (LN229 (Brain), read-out: IC50 [M] (ProliFiler-140)) was 1.39e-07 M and 1.4e-07 M. The IC50 (LOU-NH91 (Lung), read-out: IC50 [M] (ProliFiler-140)) was 7.5e-08 M and 7.46e-08 M, the IC50 (LOVO (Colon), read-out: IC50 [M] (ProliFiler-140)) was 3.37e-08 M and 3.4e-08 M and the IC50 (LP-1 (Blood), read-out: IC50 [M] (ProliFiler-140)) was 1.7e-07 M and 1.69e-07 M. The “Reductive Activation Index” value (LnCap (Prostate)) was 8.0, the IC50 (LnCap (Prostate), read-out: IC50 [M] (ProliFiler-140)) was 1.1e-07 M and 1.12e-07 M and the “Reductive Activation Index” value (M07e (Blood)) was 8.55. The IC50 (M07e (Blood), read-out: IC50 [M] (ProliFiler-140)) was 1.62e-08 M and 1.6e-08 M, the “Reductive Activation Index” value (MCAS (Ovary)) was 6.5 and 6.53 and the IC50 (MCAS (Ovary), read-out: IC50 [M] (ProliFiler-140)) was 1.3e-07 M and 1.25e-07 M. The IC50 (MCF-7 (Breast), read-out: IC50 [M] (ProliFiler-140)) was 4.5e-08 M and 4.48e-08 M, the IC50 (MCF-7, read-out: IC50) was 4.5e-08 M and the “Reductive Activation Index” value (MDA MB 231 (Breast)) was 4.24. For the same molecule, the IC50 (MDA MB 231 (Breast), read-out: IC50 [M] (ProliFiler-140)) was 1.74e-07 M and 1.7e-07 M, the “Reductive Activation Index” value (MDA MB 435 (Skin)) was 6.1 and the IC50 (MDA MB 435 (Skin), read-out: IC50 [M] (ProliFiler-140)) was 1.8e-07 M and 1.76e-07 M. For the same molecule, the IC50 (MDA-MB-468 (Breast), read-out: IC50 [M] (ProliFiler-140)) was 3.1e-08 M, the IC50 (MDA-MB-468, read-out: IC50) was 3.1e-08 M and the IC50 (MEC-1 (Blood), read-out: IC50 [M] (ProliFiler-140)) was 1.5e-08 M and 1.51e-08 M.
